Reference: the supplement of paper PMC4862054

Tests used:
CAL-148 [1] = experiment: normalised viability (% of control), CellTiter-Blue; higher = more viable cells (about 100 = DMSO control); details: incubation time: 72 h
In short: (§1)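 Vehicle (100) and a positive kill control (0) anchored the normalisation of each plate, and Z'-factor was used for quality control. Breast cancer cell lines in 20 µl suspension were incubated 72 h over compound in 5 µl medium in 384-well plates, followed by CellTiter-Blue at 560/590 nm. The value is normalised viability at a single listed concentration of the series.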

DU-4475 [2] = experiment: as above; details: incubation time: 72 h
In short: as §1

HDQ-P1 [3] = experiment: as above; details: incubation time: 72 h
In short: as §1

BT-474 = experiment: normalised response (% of control), CellTiter-Glo; higher = more viable cells (100 = DMSO, 0 = benzethonium chloride kill control); details: incubation time: 72 h
In short: (§2)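 Values are normalised signals, each belonging to one concentration of the series. Breast cancer cells (20 µl suspension) were seeded into 384-well plates with compound at 5 concentrations in 10-fold steps over a compound-specific 10,000-fold range and incubated 72 h. Readouts were CellTox Green fluorescence (485/520 nm), then CellTiter-Glo luminescence after 10 min at room temperature, with each plate set to 0.1 % DMSO as 100 and a positive kill control as 0.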

BT-549 = experiment: as above; details: incubation time: 72 h
In short: as §2

CAL-120 = experiment: as above; details: incubation time: 72 h
In short: as §2

CAL-148 [4] = experiment: as above; details: incubation time: 72 h
In short: as §2

CAL-51 = experiment: as above; details: incubation time: 72 h
In short: as §2

CAL-85-1 = experiment: as above; details: incubation time: 72 h
In short: as §2

DU-4475 [5] = experiment: as above; details: incubation time: 72 h
In short: as §2

HCC1143 = experiment: as above; details: incubation time: 72 h
In short: as §2

HCC1599 = experiment: as above; details: incubation time: 72 h
In short: as §2

HCC1937 = experiment: as above; details: incubation time: 72 h
In short: as §2

HDQ-P1 [6] = experiment: as above; details: incubation time: 72 h
In short: as §2

Hs578T = experiment: as above; details: incubation time: 72 h
In short: as §2

MCF-10A = experiment: as above; details: incubation time: 72 h
In short: as §2

MDA-MB-231 [7] = experiment: as above; details: incubation time: 72 h
In short: as §2

MDA-MB-436 = experiment: as above; details: incubation time: 72 h
In short: as §2

MDA-MB-453 = experiment: as above; details: incubation time: 72 h
In short: as §2

MDA-MB-468 = experiment: as above; details: incubation time: 72 h
In short: as §2

MFM-223 = experiment: as above; details: incubation time: 72 h
In short: as §2

SK-BR-3 = experiment: as above; details: incubation time: 72 h
In short: as §2

MDA-MB-231 [8] = details: 72 h
Experimental: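 Drug sensitivity and resistance testing (DSRT) of breast cancer cell lines in 384-well plates, 5 concentrations in 10-fold dilutions over a compound-specific 10,000-fold range. After 72 h, cytotoxicity was read by CellTox Green fluorescence and viability by CellTiter-Glo luminescence (multiplexed), normalised to DMSO and benzethonium chloride controls. EC50 is the inflection point of the fitted dose-response curve (bottom asymptote free, so it can be relative for partial curves) and is censored at the highest tested concentration. Rows with DSS 0 (no meaningful response) were excluded.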

Structure (SMILES) | normalised viability (CAL-148 [1]) | normalised viability (DU-4475 [2]) | normalised viability (HDQ-P1 [3]) | normalised response (BT-474) | normalised response (BT-549) | normalised response (CAL-120) | normalised response (CAL-148 [4]) | normalised response (CAL-51) | normalised response (CAL-85-1) | normalised response (DU-4475 [5]) | normalised response (HCC1143) | normalised response (HCC1599) | normalised response (HCC1937) | normalised response (HDQ-P1 [6]) | normalised response (Hs578T) | normalised response (MCF-10A) | normalised response (MDA-MB-231 [7]) | normalised response (MDA-MB-436) | normalised response (MDA-MB-453) | normalised response (MDA-MB-468) | normalised response (MFM-223) | normalised response (SK-BR-3) | EC50, CellTox Green (MDA-MB-231 [8])
CNC(=O)c1cc(Oc2ccc(NC(=O)Nc3ccc(Cl)c(C(F)(F)F)c3)c(F)c2)ccn1 [Regorafenib] (10000 nM) | 81.7% | 39.3% | 92.9% | 50% | 43.7% | 49.8% | 66.7% | 73.8% | 89.3% | 58.2% | 77.8% | 36.5% | 50.1% | 57.4% | 47% | 46.2% | 61.2% | 46.9% | 59.1% | 29.8% | 35.9% | 51.7% | –
c1ccc2c(CCNc3ccc(Nc4ccncc4)cc3)c[nH]c2c1 [Serdemetan] (10000 nM) | 55.8% | -0.82% | 56.6% | 51.8% | 23.6% | 67.3% | 21.3% | 9.77% | 39.1% | 0.28% | 52.9% | 14.4% | 49.7% | 73.6% | 48.1% | 52.6% | 41% | 44.8% | 42.3% | 9.51% | 58% | 15.5% | –
NC(=O)c1ccc(I)c([N+](=O)[O-])c1 [Iniparib] (10000 nM) | 108% | 94% | 106% | 91% | 96.5% | 98.2% | 88.8% | 84.7% | 116% | 90.2% | 92.1% | 88% | 86.9% | 96.3% | 95.5% | 76.3% | 93.9% | 73.3% | 73.2% | 79% | 80% | 71.1% | –
COc1cc2c(NC3CCN(C(C)C)CC3)nc(N3CCC(F)(F)CC3)nc2cc1OCCCN1CCCC1 [UNC0642] | – | – | – | – | – | – | – | – | – | – | – | – | – | – | – | – | – | – | – | – | – | – | 2090 nM
CC(C)C[C@@H](C(=O)N[C@H](C(=O)OC1CCCC1)c1ccccc1)[C@H](O)C(=O)NO [Tosedostat] (10000 nM) | 23.2% | 35.2% | 76.5% | 24.8% | 42.7% | 47.9% | 67.1% | 71.9% | 36.6% | 87.6% | 55.1% | 89% | 60.4% | 59.9% | 63.1% | 76.5% | 35.7% | 64.5% | 47.6% | 24.6% | 55.9% | 74% | –
Cc1ccc(NC(=O)c2ccc(CN3CCN(C)CC3)cc2)cc1Nc1nc(-c2cccnc2)cs1 [Masitinib] | – | – | – | – | – | – | – | – | – | – | – | – | – | – | – | – | – | – | – | – | – | – | 3220 nM
N#Cc1ccc(COC[C@H]2O[C@@H](n3c(NCc4ccc(Cl)c(Cl)c4)nc4c(N)ncnc43)[C@H](O)[C@@H]2O)cc1 (10000 nM) | 89% | 76.9% | 88.4% | 68.2% | 61.8% | 83.7% | 83.7% | 88% | 86.3% | 65.6% | 66.2% | 65.7% | 51.6% | 69.6% | 78.2% | 59.2% | 74.5% | 85.1% | 75% | 72.5% | 74.3% | 47.4% | –
O=C(Nc1ccncc1)C(=O)c1cn(Cc2ccc(Cl)cc2)c2ccccc12 [Indibulin] (10000 nM) | 43.7% | 21.4% | 55.2% | 73.5% | 39.2% | 60.7% | 103% | 18.4% | 43% | 79% | 47.9% | 73.1% | 69% | 72% | 51.4% | 76.1% | 53.8% | 44.7% | 66.9% | 37% | 62.5% | 27% | –
CN(C)CCOc1ccc(/C(=C(/CCCl)c2ccccc2)c2ccccc2)cc1 [Toremifene] (10000 nM) | 104% | 94.5% | 108% | 68.5% | 81.8% | 90.7% | 86.7% | 98.3% | 85.2% | 88% | 96.8% | 77.9% | 49.1% | 87.7% | 82.1% | 63.5% | 65.9% | 83.7% | 63.8% | 75.5% | 48.4% | 67.1% | –
